Read-outs that look alike come from different tables or passages of the source. Ends that are not written are not given here. Peptide text beside a SMILES is read from it. * marks the point of attachment. Cbz = O=C(OCc1ccccc1)*; CH2F = FC*
How the values were obtained:
[1] = system: rat myocardium; details: in vivo rat myocardium; cited from earlier work
[2] = system: rabbit femoral arteries; details: in vivo rabbit femoral arteries; cited from earlier work
[3] = system: caspase-3; details: cited from earlier work
[4] = system: mouse hearts; test: Ex vivo model of global ischemia and reperfusion injury, Langendorff-perfused mouse hearts (WT and δV1-1 transgenic)
Procedure: Transgenic mice (TG) that selectively express δV1-1 in myocytes were created using α- myosin heavy chain promoter. Hah, H. S., et al., Circ. Res. 91:741-748 (2002). Hemodynamic and morphometric parameters in these transgenic mice, as measured by echocardiographic measurements in vivo, were not different from those measured in wild type mice (WT). Inagaki, K., et al., Circulation 108:869-875 (2003). Mice were heparinized (4000U/kg IP) and anesthetized with sodium pentobarbital (200mg/kg IP). Hearts were perfused with an oxygenated Krebs-Henseleit buffer at 37° C. in a Langendorff system as previously described in Inagaki, K., et al., Circulation 108:869-875 (2003). Hearts were subjected to a 30-minute global ischemia and a 120-minute full reperfusion. The coronary flow rate was kept constant at 3 mL/minute (0.04L/min/g; initial coronary perfusion pressure: WT 67.4±5.1, WT+δV1-1 61.0±4.6, TG 62.6±3.9, TG+δV1-1 64.6±5.4 mmHg; PENS, n=5 for each group; FIG. 1) using an adjustable-speed rotary pump during the experiment to provide 60-80 mmHg of initial coronary perfusion pressure (CPP) as previously reported in Webster, K. A., et al., J. Clin. Invest. 104:239-252 (1999). CPP was measured through a sidearm in the Langendorff system. Coronary vascular resistance (CVR) was defined as CPP divided by coronary flow rate. Hearts were perfused with Tat-conjugated δV1-1 [50 nmol/L; Tat-conjugated δV1-1 described in Chen, L. et al., Proc. Natl. Acad. Sci. U.S.A. 98:11114-11119 (2001)] or vehicle (control) during the first 20 minutes of reperfusion (n=5 for each group). Coronary perfusion effluent was collected to determine creatine phosphokinase (CPK) release.
(§1) At the end of the reperfusion, 1 -mm-thick transverse sections of mouse hearts were incubated in triphenyltetrazolium chloride solution (TTC) (1% in phosphate buffer, pH 7.4) at 37° C. for 15 minutes as described in Inagaki, K. et al., Circulation 108:869-875 (2003) to determine the viable myocardium. One cm-thick transverse segments of the hearts were stained with TTC. Infarct size was expressed as a percentage of the total area at risk. Immunohistochemistry was performed on cardiac tissue two hours after reperfusion in murine hearts (n=5 for each group) as described in Vakeva, A. P., et al., Circulation 97:2259-2267 (1998). Hearts were immediately frozen in Optimal Cutting Temperature (OCT) Compound, and 5-μm-thick cryosections were obtained. Sections were fixed with 4% formaldehyde, blocked with 1 % normal donkey serum and incubated with mouse monoclonal anti-(x-actinin antibody (Sigma-Aldrich) or goat anti-PECAM-1 antibody (Santa Cruz Biochemicals) to distinguish between endothelial cells and myocytes. Secondary antibody treatments were carried out using goat anti-mouse IgG antibody conjugated with FITC or donkey anti-goat lgG antibody conjugated with FITC (Molecular Probe). Terminal deoxynucleotidyl transferase-mediated dUTP nick-end labeling (TUNEL) staining was performed for detection of apoptotic cells (Roche) and nuclei were counterstained with 4, 6-diamidino-2-phenylindole (DAPI; Sigma-Aldrich). Tissue samples from the non-ischemic area were used as negative control. TUNEL-positive nuclei were counted in a total of 1,500 myocytes and 500 of endothelial cells over several random fields.
Data are expressed as mean±SEM. Two-way ANOVA for repeated measures was used for time-course of cardiac function and vascular function, 1-way factorial ANOVA with Fisher's test for multiple comparisons, and unpaired or paired student's t-test for difference between 2 groups. P<0.05 was considered statistically significant.

[5] = system: Yorkshire swine; assay type: in vivo, pig; design: key to CFR(Cx) / CFR(LAD): hyperemic average peak velocity ÷ baseline average peak velocity; details: for CFR(LAD): adenosine hyperemia; for CFR(Cx): unaffected left circumflex artery
Procedure: Yorkshire swine (30-45kg) were maintained during the every procedure under anesthesia by inhaled isoflurane (1-2%). A bolus of 300 IU/kg heparin was administered intravenously through the sheath (6 French) placed in the carotid artery. A 10 mm, over-the-wire angioplasty balloon was placed in the left anterior descending artery (LAD) proximal to the first diagonal branch. The balloon was inflated to occlude the LAD for 30 minutes. At the last 1 minute of a 30-minute ischemia, Tat-conjugated δV1-1 (250 ng/kg) or saline was infused at 1 mL/minute for 1 minute through the guide-wire lumen of the balloon catheter (n=9 for each group). Left ventriculogram (LVG) was obtained (40° left anterior oblique projection, 30 frames/sec) to measure cardiac function at 5 time points; before ischemia (baseline), 30 minutes, 24 hours, 5 days, and 10 days after ischemia (n=9 for each group). Ejection fraction (EF) and hypokinetic area were calculated using the software (Plus Plus, Sanders Data System, Calif.) with elimination of frames after premature ventricular contraction beats. Blood pressure and heart rate were measured just before LVG measurements at each time point through the water-filled catheter (Table 1). Coronary flow was measured by a 0.014″ Doppler-tipped guide wire (Flowire, JOMED Inc.) in the LAD, and the unaffected, left circumflex artery (LCx). The wire tip was placed 2 cm distal from the balloon-occluded site in the LAD. After stable baseline flow velocity was recorded, adenosine [endothelium-independent vasodilator; 48 μg; Suryapranata, H., et al., Circulation 89:1109-1117 (1994)] was infused intracoronarily to induce hyperemia (a transient increase in coronary blood flow through microvascular vasodilation) at 5 time points: before ischemia (baseline), 30 minutes, 24 hours, 5 days, and 10 days after ischemia (n=9 for each group). Bradykinin [endothelium-dependent vaodilator, 0.2ml of a 3×10^−6M in saline; Rodriguez-Sinovas, A., et al., J. Appl. Physiol. 95:81-88 (2003)] was also infused intracoronary before ischemia and 24 hours after reperfusion (n=6 for each group). Coronary flow reserve was calculated by dividing the average peak velocity (APV) at hyperemic phase by the baseline APV as described in Suryapranata, H., et al., Circulation 89:1109-1117 (1994). After reperfusion, to determine the area at risk in porcine hearts, LAD ligation was performed at the balloon-occluded site and Evan's Blue (0.0025%) was perfused as previously described in Inagaki, K., et al., Circulation 2304-2307 (2003). All other methods were performed as described in Example 1.

[6] = system: endothelial cells and myocytes of porcine hearts; test: TUNEL staining and electron microscopy of porcine cardiac tissue 4 hours after reperfusion; assay type: in vivo, pig
Procedure: as §1
Immunohistochemistry was performed on cardiac tissue as described in Example 1 with the exception that immunohisotchemistry was performed 4 hours after reperfusion in porcine hearts (n=3 for each group).
Electron microscopy study was performed on porcine cardiac tissue 4 hours after reperfusion (n=3 for each group). Samples taken from the mid-myocardium were fixed (FIG. 3A) and prepared as previously reported in Gottlieb, R. A., et al., J. Clin Invest. 94:1621-1628 (1994). Ultra-thin sections were stained with uranyl acetate lead citrate and examined with the H300 (Hitachi) electron microscopy. All other methods were as previously described in Examples 1 and 2.

[7] = system: adult rat cardiomyocytes; details: cited from earlier work
[8] = system: caspase-3; details: myocardium; cited from earlier work
[9] = further δV1-1 infusion to the transgenic hearts
[10] = transgenic mouse hearts, exogenous δV1-1
[11] = wild type hearts, exogenous δV1-1
[12] = wild type hearts, δV1-1 delivered through coronary arteries, 50 nmol/L, first 20 minutes of reperfusion
[13] = LAD, Baseline (before ischemia)
[14] = electron microscopy, 4 hours after reperfusion
[15] = electron microscopy, 4 hours after reperfusion, listed as δV1-
[16] = four hours after reperfusion, TUNEL, n=3

COC(=O)C[C@H](NC(=O)[C@H](C)NC(=O)[C@@H](NC(=O)OCc1ccccc1)C(C)C)C(=O)CF [ZVADfmk] (Cbz-Val-Ala-Asp(OMe)-CH2F)
reperfusion injury [1]: reduces reperfusion injury | staurosporin-induced endothelial apoptosis [2]: reduces

CC(=O)c1c(O)c(C)c(O)c(Cc2c(O)c3c(c(C(=O)/C=C/c4ccccc4)c2O)OC(C)(C)C=C3)c1O [rottlerin]
caspase-3 activity [3]: attenuated

δV1-1: δPKC inhibitor peptide, SEQ ID NO:1 (SFNSYELGSL), amino acids 8-17 of rat δPKC; used Tat-conjugated in the examples (also: Tat conjugate in examples; listed as Rattus norvegicus)
coronary vascular resistance (CVR) during reperfusion ([4]; further treatment of transgenic mouse hearts): significantly minimized the rise of CVR | CPK release [4, 9]: unaffected | infarct size [4, 9]: unaffected | TUNEL-positive myocytes [4, 10]: without any further effect | decrease of TUNEL-positive endothelial cells [4, 10]: 80% | reduction of number of TUNEL positive endothelial cells [4, 11]: 80% | reduction of number of TUNEL positive myocytes [4, 11]: 80% | decrease in CPK release [4, 12]: about 70% | decrease in infarct size [4, 12]: about 70% | CFR(LAD) ([5]; 30 min R): 2.00 ± 0.20 | coronary flow reserve in LAD following bradykinin infusion ([5]; 24 hours after reperfusion, n=6): did not decrease | CFR(LAD) ([5]; 24 hr R): 2.50 ± 0.24 | CFR(LAD) ([5]; 5 days R): 2.68 ± 0.21 | CFR(LAD) ([5]; 10 days R): 2.67 ± 0.27 | ejection fraction ([5]; 10 days after ischemia, n=9): 69.9±1.6% | hypokinetic area ([5]; 10 days after ischemia, n=9): 4.7±2.0% | CFR(LAD) ([5]; Baseline (before ischemia)): 2.52 ± 0.16 | b-APV (baseline average peak flow velocity) ([5]; Cx, 30 min R): 20.3 ± 3 cm/s | h-APV (hyperemia average peak flow velocity) ([5]; Cx, 30 min R): 37 ± 3 cm/s | b-APV (baseline average peak flow velocity) ([5]; Cx, 24 hr R): 15 ± 2 cm/s | h-APV (hyperemia average peak flow velocity) ([5]; Cx, 24 hr R): 30 ± 4 cm/s | b-APV (baseline average peak flow velocity) ([5]; Cx, 5 days R): 25 ± 5 cm/s | h-APV (hyperemia average peak flow velocity) ([5]; Cx, 5 days R): 55 ± 10 cm/s | b-APV (baseline average peak flow velocity) ([5]; Cx, 10 days R): 25 ± 3 cm/s | h-APV (hyperemia average peak flow velocity) ([5]; Cx, 10 days R): 55 ± 5 cm/s | b-APV (baseline average peak flow velocity) ([5]; Cx, Baseline (before ischemia)): 24 ± 2 cm/s | h-APV (hyperemia average peak flow velocity) ([5]; Cx, Baseline (before ischemia)): 61 ± 3 cm/s | b-APV (baseline average peak flow velocity) ([5]; LAD, 30 min R): 27 ± 4 cm/s | h-APV (hyperemia average peak flow velocity) ([5]; LAD, 30 min R): 49 ± 4 cm/s | b-APV (baseline average peak flow velocity) ([5]; LAD, 24 hr R): 18 ± 1 cm/s | h-APV (hyperemia average peak flow velocity) ([5]; LAD, 24 hr R): 46 ± 6 cm/s | b-APV (baseline average peak flow velocity) ([5]; LAD, 5 days R): 24 ± 3 cm/s | h-APV (hyperemia average peak flow velocity) ([5]; LAD, 5 days R): 67 ± 9 cm/s | b-APV (baseline average peak flow velocity) ([5]; LAD, 10 days R): 25 ± 4 cm/s | h-APV (hyperemia average peak flow velocity) ([5]; LAD, 10 days R): 57 ± 6 cm/s | b-APV (baseline average peak flow velocity) [5, 13]: 24 ± 3 cm/s | h-APV (hyperemia average peak flow velocity) [5, 13]: 58 ± 7 cm/s | resting APV and coronary flow reserve in left circumflex artery (LCx, control artery) ([5]; all time points): remained normal | infarct size ([5]; intracoronary treatment at the time of reperfusion, 10 days after ischemia, n=9): 4.4±1.1% | blood pressure, heart rate or vessel diameter vs. control group ([5]; pig, in vivo): no significant differences | CFR(Cx) ([5]; 30 min R): 1.73 ± 0.21 | CFR(Cx) ([5]; 24 hr R): 1.96 ± 0.04 | CFR(Cx) ([5]; 5 days R): 2.01 ± 0.14 | CFR(Cx) ([5]; 10 days R): 2.46 ± 0.20 | CFR(Cx) ([5]; Baseline (before ischemia)): 2.44 ± 0.10 | time until coronary flow reserve (adenosine, LAD) was normalized ([5]; δV1-1-treated pigs): ≤ 24 h | coronary flow reserve following adenosine infusion in LAD after reperfusion ([5]; δV1-1-treated pigs, 250 ng/kg intracoronary at last 1 minute of ischemia): minor decrease | endothelial cell swelling [6, 14]: minimal swelling | microvasculature lumen [6, 14]: patent | myocyte damage (contraction bands, swollen mitochondria) [6, 14]: no such pathological changes were observed | obstruction of capillaries by red and white blood cells [6, 14]: rarely seen | endothelial cell swelling [6, 15]: slight endothelial swelling | myocyte damage (contraction bands, swollen mitochondria) [6, 15]: neither contraction bands nor swollen mitochondria | decrease of apoptosis in endothelial cells [6, 16]: about 70% | decrease of apoptosis in myocytes [6, 16]: about 70% | hyperglycemia-induced apoptosis [7]: inhibits | free radical formation ([7]; hyperglycemia): inhibits | reperfusion-induced caspase-3 activity [8]: reduced
